Assay [1] concerns Aβ production in Chinese hamster ovary cells that over-express human APP695 with the London and Swedish mutations. The assay can be described thus: Cellular Aβ IC50 determination (Aβ40 sandwich ELISA). The format is cell-based. Particulars: Cricetulus griseus; cellular Aβ production; read-out: IC50. In a few lines:
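Aβ40 in media quantified by sandwich ELISA, normalized to control incubations and fitted with a 4-parameter IC50 model. Compounds dosed to a final concentration near 4 μM (0.4% DMSO) on CHO cells expressing human APP695 (London and Swedish mutants) seeded at 10% confluency.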
On the technique in general: ELISA stands for enzyme-linked immunosorbent assay.

For the next assay, the target named is memapsin 2 (Homo sapiens, UniProt P56817). Nature of the assay: Inhibition of memapsin 2 beta-secretase activity (fluorogenic substrate FS-2). The format is biochemical. Particulars: memapsin 2, pH 4, 37° C., read-out: M2Ki. In a few lines:
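Kinetic fluorogenic assay: hydrolysis of the MCA/DNP-labelled APP Swedish-variant peptide FS-2 monitored as fluorescence rise at 37° C, pH 4, after 20 min enzyme–compound preincubation. Relative rates fitted with a tight-binding inhibitor model.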

Each structure is given as a SMILES string. Like-named read-outs stand apart in the source and are kept apart here.

memapsin 2, sequence (P56817 46-501): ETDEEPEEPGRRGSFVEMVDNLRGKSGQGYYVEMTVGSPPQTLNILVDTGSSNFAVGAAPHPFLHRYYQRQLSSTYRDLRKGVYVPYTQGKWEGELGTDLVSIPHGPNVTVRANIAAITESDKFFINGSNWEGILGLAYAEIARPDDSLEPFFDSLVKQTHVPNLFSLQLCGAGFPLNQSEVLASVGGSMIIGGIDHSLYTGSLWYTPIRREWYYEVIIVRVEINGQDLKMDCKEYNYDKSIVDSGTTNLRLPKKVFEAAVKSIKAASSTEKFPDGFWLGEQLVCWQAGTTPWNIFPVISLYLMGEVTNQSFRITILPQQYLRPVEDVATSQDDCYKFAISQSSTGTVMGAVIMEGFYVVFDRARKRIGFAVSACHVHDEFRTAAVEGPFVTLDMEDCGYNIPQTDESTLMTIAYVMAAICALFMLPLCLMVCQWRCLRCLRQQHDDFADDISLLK

On to `Cc1csc(CN(C)C(=O)c2cccc(C(=O)N[C@@H](Cc3ccccc3)[C@H](O)CNCc3cccc(C(F)F)c3)c2)n1` [Compound 143, N1-((2S,3R)-4-(3-(difluoromethyl)benzylamino)-3-hydroxy-1-phenylbutan-2-yl)-N3-methyl-N3-((4-methylthiazol-2-yl)methyl)isophthalamide], for which, in assay [1], the IC50 (as a rule, the midpoint of a concentration-inhibition curve) is < 1 µM. The Ki at memapsin 2 (20 minutes pre-incubation) is < 0.3 µM.
For `COc1cccc(CNC[C@@H](O)[C@H](Cc2ccccc2)NC(=O)c2cc(C(=O)NCc3nc(C)cs3)cc(N3CCCC3=O)c2)c1` [Compound 199, N1-((2S,3R)-3-hydroxy-4-(3-methoxybenzylamino)-1-phenylbutan-2-yl)-N3-((4-methylthiazol-2-yl)methyl)-5-(2-oxopyrrolidin-1-yl)isophthalamide], the IC50 in assay [1] was > 5 µM. Moreover, the Ki at memapsin 2 (20 minutes pre-incubation) is > 0.501 µM.
Regarding `Cc1csc(CN(C)C(=O)c2cccc(C(=O)N[C@@H](Cc3ccccc3)[C@H](O)CNCc3cccc(C4CC4)c3)c2)n1` [Compound 12, N1-((2S,3R)-4-(3-cyclopropylbenzylamino)-3-hydroxy-1-phenylbutan-2-yl)-N3-methyl-N3-((4-methylthiazol-2-yl)methyl)isophthalamide], in assay [1], the IC50 is < 1 µM. Moreover, the Ki at memapsin 2 (20 minutes pre-incubation) was < 0.3 µM.
On to `Cc1csc(CN(C)C(=O)c2cccc(C(=O)N[C@@H](Cc3ccccc3)[C@H](O)CNCc3cncc(C(C)(C)C)c3)c2)n1` [Compound 190, N1-((2S,3R)-4-((5-tert-butylpyridin-3-yl)methylamino)-3-hydroxy-1-phenylbutan-2-yl)-N3-methyl-N3-((4-methylthiazol-2-yl)methyl)isophthalamide], for which the IC50 in assay [1] is < 1 µM. Also, the Ki on memapsin 2 (20 minutes pre-incubation) is < 0.3 µM.
For the molecule `Cc1csc(CN(C)C(=O)c2cccc(C(=O)N[C@@H](Cc3ccccc3)[C@H](O)CNCc3cncc(F)c3)c2)n1` [Compound 225, N1-((2S,3R)-4-((5-fluoropyridin-3-yl)methylamino)-3-hydroxy-1-phenylbutan-2-yl)-N3-methyl-N3-((4-methylthiazol-2-yl)methyl)isophthalamide], in assay [1], the IC50 lay in the range of 1 to 5 µM. Also, on memapsin 2 (fluorogenic substrate FS-2), the Ki is < 0.3 µM.
On the same counts, the results for `Cc1csc(CN(C)C(=O)c2cc(C(=O)N[C@@H](Cc3ccccc3)[C@H](O)CNCc3cncc(C(C)C)c3)cc(-c3cccn3C)c2)n1` [Compound 257, N1-((2S,3R)-3-hydroxy-4-((5-isopropylpyridin-3-yl)methylamino)-1-phenylbutan-2-yl)-N3-methyl-5-(1-methyl-1H-pyrrol-2-yl)-N3-((4-methylthiazol-2-yl)methyl)isophthalamide] are < 1 µM and < 0.3 µM.
Consider `Cc1csc(CN(C)C(=O)c2cccc(C(=O)N[C@@H](Cc3ccccc3)[C@H](O)CNCc3cc(OS(C)(=O)=O)cc(C(C)C)c3)c2)n1` [Compound 165, 3-(((2R,3S)-2-hydroxy-3-(3-(methyl((4-methylthiazol-2-yl)methyl)carbamoyl)benzamido)-4-phenylbutylamino)methyl)-5-isopropylphenyl methanesulfonate], for which, in assay [1], the IC50 is < 1 µM. Besides, the Ki at memapsin 2 (20 minutes pre-incubation) is < 0.3 µM.
On to `Cc1csc(CN(C)C(=O)c2cc(C(=O)N[C@@H](Cc3ccccc3)[C@H](O)CNCc3cncc(C(C)C)c3)cc(-c3ccco3)c2)n1` [Compound 252, 5-(furan-2-yl)-N1-((2S,3R)-3-hydroxy-4-((5-isopropylpyridin-3-yl)methylamino)-1-phenylbutan-2-yl)-N3-methyl-N3-((4-methylthiazol-2-yl)methyl)isophthalamide], for which the IC50 in assay [1] was < 1 µM. At memapsin 2 (fluorogenic substrate FS-2), the Ki is < 0.3 µM.
Consider `Cc1csc(CN(C)C(=O)c2cc(C(=O)N[C@@H](Cc3ccccc3)[C@H](O)CNCc3cncc(C(C)C)c3)cc(N3CCCC3=O)c2)n1` [Compound 195, N1-((2S,3R)-3-hydroxy-4-((5-isopropylpyridin-3-yl)methylamino)-1-phenylbutan-2-yl)-N3-methyl-N3-((4-methylthiazol-2-yl)methyl)-5-(2-oxopyrrolidin-1-yl)isophthalamide], for which the IC50 in assay [1] was < 1 µM. Besides, the Ki on memapsin 2 (20 minutes pre-incubation) is < 0.3 µM.
As for `Cc1csc(CN(C)C(=O)c2cc(C(=O)N[C@@H](Cc3ccccc3)[C@H](O)CNCc3cncc(C(C)C)c3)cc(N3CCCC3)c2)n1` [Compound 180, N1-((2S,3R)-3-hydroxy-4-((5-isopropylpyridin-3-yl)methylamino)-1-phenylbutan-2-yl)-N3-methyl-N3-((4-methylthiazol-2-yl)methyl)-5-(pyrrolidin-1-yl)isophthalamide], the IC50 in assay [1] was < 1 µM. In addition, the Ki at memapsin 2 (20 minutes pre-incubation) was < 0.3 µM.
Consider `COc1cccc(NC[C@@H](O)[C@H](Cc2ccccc2)NC(=O)c2cccc(C(=O)N(C)Cc3nc(C)cs3)c2)c1` [Compound 166, N1-((2S,3R)-3-hydroxy-4-(3-methoxyphenylamino)-1-phenylbutan-2-yl)-N3-methyl-N3-((4-methylthiazol-2-yl)methyl)isophthalamide], for which the IC50 in assay [1] was > 5 µM. In addition, the Ki at memapsin 2 (20 minutes pre-incubation) is > 0.501 µM.
Taken in the same sequence, the figures for `Cc1csc(CNC(=O)c2cc(C(=O)N[C@@H](Cc3ccccc3)[C@H](O)CNCc3cncc(C(C)C)c3)cc(-c3ncco3)c2)n1` [Compound 197, N1-((2S,3R)-3-hydroxy-4-((5-isopropylpyridin-3-yl)methylamino)-1-phenylbutan-2-yl)-N3-((4-methylthiazol-2-yl)methyl)-5-(oxazol-2-yl)isophthalamide] were < 1 µM and < 0.3 µM.
For `Cc1csc(CN(C)C(=O)c2cc(C(=O)N[C@@H](Cc3ccccc3)[C@H](O)CNCc3cncc(C(C)C)c3)cc(-c3ncc[nH]3)c2)n1` [Compound 263, N1-((2S,3R)-3-hydroxy-4-((5-isopropylpyridin-3-yl)methylamino)-1-phenylbutan-2-yl)-5-(1H-imidazol-2-yl)-N3-methyl-N3-((4-methylthiazol-2-yl)methyl)isophthalamide], the IC50 in assay [1] was < 1 µM. Also, the Ki at memapsin 2 (fluorogenic substrate FS-2) was < 0.3 µM.
Consider `Cc1csc(CN(C)C(=O)c2cccc(C(=O)N[C@@H](Cc3ccccc3)[C@H](O)CNCc3cccc(N(C)C)c3)c2)n1` [Compound 129, N1-((2S,3R)-4-(3-(dimethylamino)benzylamino)-3-hydroxy-1-phenylbutan-2-yl)-N3-methyl-N3-((4-methylthiazol-2-yl)methyl)isophthalamide], for which, in assay [1], the IC50 was < 1 µM. In addition, the Ki on memapsin 2 (20 minutes pre-incubation) is < 0.3 µM.
Taken in the same sequence, the figures for `Cc1csc(CN(C)C(=O)c2cccc(C(=O)N[C@@H](Cc3ccccc3)[C@H](O)CNCc3cncc(CCC(C)C)c3)c2)n1` [Compound 68, N1-((2S,3R)-3-hydroxy-4-((5-isopentylpyridin-3-yl)methylamino)-1-phenylbutan-2-yl)-N3-methyl-N3-((4-methylthiazol-2-yl)methyl)isophthalamide] were < 1 µM and < 0.3 µM.
On the same counts, the results for `Cc1csc(CN(C(=O)c2cccc(C(=O)N[C@@H](Cc3ccccc3)[C@H](O)CNCc3cncc(C(F)(F)F)c3)c2)C2CC2)n1` [Compound 59, N1-cyclopropyl-N3-((2S,3R)-3-hydroxy-1-phenyl-4-((5-(trifluoromethyl)pyridin-3-yl)methylamino)butan-2-yl)-N1-((4-methylthiazol-2-yl)methyl)isophthalamide] are < 1 µM and < 0.3 µM.
On the same counts, the results for `COc1cccc(CNC[C@@H](O)[C@H](Cc2ccccc2)NC(=O)c2cc(C(=O)N(C)Cc3nc(C)cs3)cc(-c3ccccn3)c2)c1` [Compound 174, N1-((2S,3R)-3-hydroxy-4-(3-methoxybenzylamino)-1-phenylbutan-2-yl)-N3-methyl-N3-((4-methylthiazol-2-yl)methyl)-5-(pyridin-2-yl)isophthalamide] are < 1 µM and < 0.3 µM.
In the case of `Cc1cc(C(=O)N[C@@H](Cc2ccccc2)[C@H](O)CNCc2cccc(C(F)(F)F)c2)cc(C(=O)N(C)Cc2nc(C)cs2)c1` [Compound 232, N1-((2S,3R)-3-hydroxy-1-phenyl-4-(3-(trifluoromethyl)benzylamino)butan-2-yl)-N3,5-dimethyl-N3-((4-methylthiazol-2-yl)methyl)isophthalamide], the IC50 in assay [1] was < 1 µM. In addition, the Ki at memapsin 2 (fluorogenic substrate FS-2) was < 0.3 µM.
On the same counts, the results for `CC(=O)c1cc(C(=O)N[C@@H](Cc2ccccc2)[C@H](O)CNCc2cccc(C(F)(F)F)c2)cc(C(=O)N(C)Cc2nc(C)cs2)c1` [Compound 244, 5-acetyl-N1-((2S,3R)-3-hydroxy-1-phenyl-4-(3-(trifluoromethyl)benzylamino)butan-2-yl)-N3-methyl-N3-((4-methylthiazol-2-yl)methyl)isophthalamide] are < 1 µM and < 0.3 µM.
On to `CNc1nc(CNC[C@@H](O)[C@H](Cc2ccccc2)NC(=O)c2cccc(C(=O)N(C)Cc3nc(C)cs3)c2)cc(C(C)C)n1` [Compound 161, N1-((2S,3R)-3-hydroxy-4-((6-isopropyl-2-(methylamino)pyrimidin-4-yl)methylamino)-1-phenylbutan-2-yl)-N3-methyl-N3-((4-methylthiazol-2-yl)methyl)isophthalamide], for which, in assay [1], the IC50 was < 1 µM. The Ki on memapsin 2 (20 minutes pre-incubation) was < 0.3 µM.
On the same counts, the results for `Cc1csc(CN(C)C(=O)c2cccc(C(=O)N[C@@H](Cc3ccccc3)[C@H](O)CNCc3cccc(C(C)C)n3)c2)n1` [Compound 10, N1-((2S,3R)-3-hydroxy-4-((6-isopropylpyridin-2-yl)methylamino)-1-phenylbutan-2-yl)-N3-methyl-N3-((4-methylthiazol-2-yl)methyl)isophthalamide] are < 1 µM and < 0.3 µM.

These data come from patent US20100286145A1, “ISOPHTHALAMIDE DERIVATIVES INHIBITING BETA-SECRETASE ACTIVITY” (CoMentis, Inc., priority 2007, published 2010).
